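Following 48 hours of exposure in 96-well plates, responses at five concentrations were used to interpolate endpoints linearly. GI50 marks 50% less growth. TGI denotes the concentration required for complete inhibition of growth.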
Columns and labels:
Assay in all cases: growth of human tumour cells (NCI), 48 h
SF-268 CNS = test system: SF-268 CNS
HOP-62 NSCLC = test system: HOP-62 NSCLC
SNB-19 CNS = test system: SNB-19 CNS
CAKI-1 renal = test system: CAKI-1 renal
COLO 205 colon = test system: COLO 205 colon
KM12 colon = test system: KM12 colon
RPMI-8226 leukemia = test system: RPMI-8226 leukemia
NCI-H23 lung = test system: NCI-H23 lung
MCF7 breast = test system: MCF7 breast
SF-295 CNS = test system: SF-295 CNS

CC(C)(C)N1CCC1C(N)=O (stereo not given)
GI50 (SF-268 CNS): > 100 µM
TGI (SF-268 CNS): > 100 µM
GI50 (HOP-62 NSCLC): > 100 µM
TGI (HOP-62 NSCLC): > 100 µM
GI50 (SNB-19 CNS): > 100 µM
TGI (SNB-19 CNS): > 100 µM
GI50 (CAKI-1 renal): > 100 µM
TGI (CAKI-1 renal): > 100 µM
GI50 (COLO 205 colon): > 100 µM
TGI (COLO 205 colon): > 100 µM
GI50 (KM12 colon): > 100 µM
TGI (KM12 colon): > 100 µM
GI50 (RPMI-8226 leukemia): > 100 µM
TGI (RPMI-8226 leukemia): > 100 µM
GI50 (NCI-H23 lung): > 100 µM
TGI (NCI-H23 lung): > 100 µM
GI50 (MCF7 breast): > 100 µM
TGI (MCF7 breast): > 100 µM
GI50 (SF-295 CNS): > 100 µM
TGI (SF-295 CNS): > 100 µM

O=c1c2ccccc2c2ccccc2c(=O)n1-c1cc2c3ccccc3ccc2c2ccccc12
TGI (SF-268 CNS): > 100 µM
TGI (HOP-62 NSCLC): > 100 µM
TGI (SNB-19 CNS): > 100 µM
TGI (CAKI-1 renal): > 100 µM
TGI (COLO 205 colon): > 100 µM
TGI (KM12 colon): > 100 µM
TGI (RPMI-8226 leukemia): > 100 µM
TGI (NCI-H23 lung): > 100 µM
TGI (MCF7 breast): > 100 µM
TGI (SF-295 CNS): > 100 µM

N[C@@H](Cc1c[nH]c2ccccc12)C(=O)NC1CCN(C(=O)c2c[nH]c3ccccc23)CC1
GI50 (SF-268 CNS): > 100 µM
TGI (SF-268 CNS): > 100 µM
GI50 (HOP-62 NSCLC): > 100 µM
TGI (HOP-62 NSCLC): > 100 µM
GI50 (SNB-19 CNS): 99.8 µM
TGI (SNB-19 CNS): > 100 µM
GI50 (CAKI-1 renal): > 100 µM
TGI (CAKI-1 renal): > 100 µM
GI50 (COLO 205 colon): 47.9 µM
TGI (COLO 205 colon): > 100 µM
GI50 (KM12 colon): 84.8 µM
TGI (KM12 colon): > 100 µM
GI50 (RPMI-8226 leukemia): > 100 µM
TGI (RPMI-8226 leukemia): > 100 µM
GI50 (NCI-H23 lung): > 100 µM
TGI (NCI-H23 lung): > 100 µM
GI50 (MCF7 breast): > 100 µM
TGI (MCF7 breast): > 100 µM
GI50 (SF-295 CNS): > 100 µM
TGI (SF-295 CNS): > 100 µM

COc1ccc(-n2c(SCc3cc(OC)c(OC)c(OC)c3)nc3ccc(C)cc3c2=O)c(OC)c1
GI50 (SF-268 CNS): 7.88 µM
TGI (SF-268 CNS): > 100 µM
GI50 (HOP-62 NSCLC): 18.8 µM
TGI (HOP-62 NSCLC): > 100 µM
GI50 (SNB-19 CNS): 6.99 µM
TGI (SNB-19 CNS): > 100 µM
GI50 (CAKI-1 renal): 2.97 µM
TGI (CAKI-1 renal): > 100 µM
GI50 (COLO 205 colon): 3.87 µM
TGI (COLO 205 colon): 11.9 µM
GI50 (KM12 colon): 3.42 µM
TGI (KM12 colon): > 100 µM
GI50 (RPMI-8226 leukemia): 2.44 µM
TGI (RPMI-8226 leukemia): > 100 µM
GI50 (NCI-H23 lung): 5.24 µM
TGI (NCI-H23 lung): > 100 µM
GI50 (MCF7 breast): 3.23 µM
TGI (MCF7 breast): > 100 µM
GI50 (SF-295 CNS): 3.22 µM
TGI (SF-295 CNS): > 100 µM

Cc1ccc(C(=O)Nc2ccc(CN3CCN(C)CC3)c(C(F)(F)F)c2)cc1C#Cc1cnc(N)cc1C#N
GI50 (SF-268 CNS): 0.2 µM
TGI (SF-268 CNS): 1.2 µM
GI50 (HOP-62 NSCLC): 0.298 µM
TGI (HOP-62 NSCLC): 2.05 µM
GI50 (SNB-19 CNS): 0.539 µM
TGI (SNB-19 CNS): 1.3 µM
GI50 (CAKI-1 renal): 0.0828 µM
TGI (CAKI-1 renal): 0.538 µM
GI50 (COLO 205 colon): 0.0901 µM
TGI (COLO 205 colon): 0.714 µM
GI50 (KM12 colon): 0.122 µM
TGI (KM12 colon): 0.716 µM
GI50 (RPMI-8226 leukemia): 0.496 µM
TGI (RPMI-8226 leukemia): 2.7 µM
GI50 (NCI-H23 lung): 0.34 µM
TGI (NCI-H23 lung): 1.28 µM
GI50 (MCF7 breast): 0.701 µM
TGI (MCF7 breast): 1.58 µM
GI50 (SF-295 CNS): 0.315 µM
TGI (SF-295 CNS): 1.16 µM
